Test results published in US12364669B2, “Device and method for transdermal delivery of cannabidiol” (Remy Biosciences, Inc., priority 2020, dated 2025).

Experiment: Diffusion of CBD from transdermal devices through a human cadaver epidermis, Franz Diffusion Cell method
Type: in vitro ADME
Details: Example 2, FIG. 4; reservoir device, 5 percent CBD in ethanol/water 70/30; with hydrophilic porous membrane 24 versus membrane omitted
Method: The effects of using a hydrophobic, porous membrane versus a hydrophilic, porous membrane (such as membrane 24) in reservoir transdermal device 20 are studied in this example. […] The backing 22 is an occlusive backing film (PE/PET from 3M). Hydroxy ethyl cellulose is added to the solution to yield a thixotropic preparation 27. A volume of 300 microliters of the preparation is placed in the reservoir 26.
The skin adhesive 30 is a BIO PSA 7-4301 adhesive coated to a thickness of 15 g/m^2 on side 36 of membrane 24. An overlay adhesive patch is placed over the reservoir which forms an island in the middle. The overlay assures adhesion of the reservoir to the skin. The device 20 is contacted with a human cadaver epidermis, and diffusion through the epidermis is measured using the Franz Diffusion Cell method.
In a first run, membrane 24 is a Lydall® Evopor™ 5E02A, hydrophilic, microporous membrane (of 0.2 micrometers pore size). […]
The device 20 is contacted with a human cadaver epidermis, and diffusion through the epidermis is measured using the Franz Diffusion Cell method. […]
This example is conducted using three reservoir transdermal devices such as those of Example 1, with each having the hydrophilic, porous membrane described therein. […] Diffusion through a human cadaver epidermis is measured using the Franz Diffusion Method. […]

SMILES: C=C(C)[C@@H]1CCC(C)=C[C@H]1c1c(O)cc(CCCCC)cc1O [CBD, Cannabidiol]
- permeability of CBD through the skin (cumulative flux versus time): the same regardless of whether the membrane 24 is provided
